Test results as given in patent US20020161202A1, “Apo-2DcR” (Genentech, Inc., priority 1997, published 2002).
Where a SMILES comes first, the peptide text is derived from it. [ ]: non-standard residue; d: D form. The star is where a group is joined. Nle = CCCC[C@H](N)C(=O)O; Cbz = O=C(OCc1ccccc1)*; CH2F = FC*

What was measured:
[1] = test system: HeLa cells; experiment: Apoptosis induction by Apo-2 in transfected HeLa cells, FACS analysis of phosphatydilserine exposure; assay type: cell-based, human; conditions: inhibitor added at 200 μM at the time of transfection, FIG. 11C
From the text: (§1) Because death domains can function as oligomerization interfaces, over-expression of receptors that contain death domains may lead to activation of signaling in the absence of ligand [Frazer et al., supra, Nagata et al., supra]. To determine whether Apo-2 was capable of inducing cell death, human 293 cells or HeLa cells (ATCC CCL 2.2) were transiently transfected by calcium phosphate precipitation (293 cells) or electroporation (HeLa cells) with a pRK5 vector or pRK5-based plasmids encoding Apo-2 and/or CrmA. When applicable, the total amount of plasmid DNA was adjusted by adding vector DNA. Apoptosis was assessed 24 hours after transfection by morphology (FIG. 11A); DNA fragmentation (FIG. 11B); or by FACS analysis of phosphatydilserine exposure (FIG. 11C) as described in Marsters et al., Curr. Biol., 6:1669 (1996).
For samples assayed by FACS, the HeLa cells were co-transfected with pRK5-CD4 as a marker for transfection and apoptosis was determined in CD4-expressing cells; FADD was co-transfected with the Apo-2 plasmid; the data are means±SEM of at least three experiments, as described in Marsters et al., Curr. Biol., 6:1669 (1996). The caspase inhibitors, DEVD-fmk (Enzyme Systems) or z-VAD-fmk (Research Biochemicals Intl.) were added at 200 μM at the time of transfection.

[2] = test system: Apo-2L; experiment: Co-precipitation assay of Apo-2 ECD-Flag with poly-histidine-tagged Apo-2L; assay type: binding; conditions: Apo-2 ECD-Flag supernatant with 5 μg poly-histidine-tagged soluble Apo-2L; FIG. 10
Protocol: To determine whether Apo-2 and Apo-2L interact or associate with each other, supernatants from mock-transfected 293 cells or from 293 cells transfected with Apo-2 ECD-Flag (described in Example 6 above) (5 ml) were incubated with 5 μg poly-histidine-tagged soluble Apo-2L [Pitti et al., supra] for 30 minutes at room temperature and then analyzed for complex formation by a co-precipitation assay.
The samples were subjected to immunoprecipitation using 25 μl anti-Flag conjugated agarose beads (Sigma) or Nickel-conjugated agarose beads (Qiagen). After a 1.5 hour incubation at 4° C., the beads were spun down and washed four times in phosphate buffered saline (PBS). By using anti-Flag agarose, the Apo-2L was precipitated through the Flag-tagged Apo-2 ECD; by using Nickel-agarose, the Apo-2 ECD was precipitated through the His-tagged Apo-2L. The precipitated proteins were released by boiling the beads for 5 minutes in SDS-PAGE buffer, resolved by electrophoresis on 12% polyacrylamide gels, and then detected by immunoblot with anti-Apo-2L or anti-Flag antibody (2 μg/ml) as described in Marsters et al., J. Biol. Chem., (1997).

[3] = target: T1, Fas/Apo-1 ligand (Homo sapiens, UniProt P48023); experiment: BIACORE analysis of Apo-2 ECD; assay type: binding
T1 construct: purchased Alexis Biochemicals
T1 sequence (P48023 103-281 limits assumed): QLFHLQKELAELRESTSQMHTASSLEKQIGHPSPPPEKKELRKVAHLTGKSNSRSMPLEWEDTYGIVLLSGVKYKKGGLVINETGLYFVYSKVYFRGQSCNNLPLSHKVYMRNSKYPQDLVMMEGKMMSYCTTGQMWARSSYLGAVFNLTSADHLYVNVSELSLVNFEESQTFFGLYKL
Protocol: (§2) The binding interaction was further analyzed by purifying Apo-2 ECD from the transfected 293 cell supernatants with anti-Flag beads (see Example 6) and then analyzing the samples on a BIACORE™ instrument. The BIACORE™ analysis indicated a dissociation constant (Kd) of about 1 nM.

[4] = target: TNF-alpha (Homo sapiens, UniProt P01375); experiment: BIACORE analysis of Apo-2 ECD; assay type: binding
Protocol: as §2

[5] = target: T2, lymphotoxin-alpha (Homo sapiens, UniProt P01374); experiment: BIACORE analysis of Apo-2 ECD; assay type: binding
T2 sequence (P01374 35-205): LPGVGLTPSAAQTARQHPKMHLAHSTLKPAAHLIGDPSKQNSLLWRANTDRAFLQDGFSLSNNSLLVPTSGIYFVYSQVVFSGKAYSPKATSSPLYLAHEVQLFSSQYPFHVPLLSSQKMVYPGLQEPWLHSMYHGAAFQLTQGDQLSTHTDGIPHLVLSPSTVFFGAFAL
Protocol: as §2

[6] = test system: HeLa cells; experiment: Apo-2L-induced apoptosis in HeLa cells by FACS and its inhibition by soluble Apo-2 ECD; assay type: cell-based, human
Protocol: Soluble Apo-2L ([…], prepared as described in Pitti et al., supra) was pre-incubated for 1 hour at room temperature with PBS buffer or affinity-purified Apo-2 ECD (5 μg/ml) together with anti-Flag antibody (Sigma) (1 μg/ml) and added to HeLa cells. After a 5 hour incubation, the cells were analyzed for apoptosis by FACS (as above) (FIG. 11D).

[7] = test system: NF-κB; experiment: NF-κB activity in HeLa cells treated with soluble ligand; assay type: cell-based, human; conditions: 1 μg/ml, FIG. 12B
[8] = test system: NF-κB; experiment: NF-κB activation in HeLa cells transfected with receptor plasmids (electrophoretic mobility shift assay); assay type: cell-based, human; conditions: harvested 24 hours after transfection, FIG. 12A
Protocol: HeLa cells were transfected with pRK5 expression plasmids encoding full-length native sequence Apo-2, DR4 or Apo-3 and harvested 24 hours after transfection. […] Immunol., 153:5274-5284 (1994)], alone or together with a 50-fold excess of unlabelled probe, or with an irrelevant ^32P-labelled synthetic oligonucleotide […] NO: 13). In some samples, antibody to p65/RelA subunits of NF-κB (1 μg/ml; Santa Cruz Biotechnology) was added. DNA binding was analyzed by an electrophoretic mobility shift assay as described by Hsu et al., supra; Marsters et al., supra, and MacKay et al., supra.

[9] = test system: HeLa cells; experiment: Effect of preincubation with inhibitors on Apo-2L-induced apoptosis in HeLa cells (FACS); assay type: cell-based, human; conditions: Apo-2L 1 μg/ml, 5 hour incubation, FIG. 12C
Protocol: The effects of a NF-κB inhibitor, ALLN (N-acetyl-Leu-Leu-norleucinal) and a […] inhibitor, cyclohexamide, were also tested. The HeLa cells (plated in 6-well dishes) were preincubated with PBS buffer, ALLN (Calbiochem) (40 μg/ml) or cyclohexamide (Sigma) (50 μg/ml) for 1 hour before addition of Apo-2L (1 μg/ml). After a 5 hour incubation, apoptosis was analyzed by FACS (see FIG. 12C).

[10] = test system: Human 293 cells; experiment: Induction of apoptosis by Apo-2 transfection, morphology and DNA fragmentation; assay type: cell-based; conditions: 24 hours after transfection; morphology, DNA fragmentation; FIGS. 11A and 11B
From the text: as §1

Chain of TNF-alpha (P01375 77-233 limits assumed): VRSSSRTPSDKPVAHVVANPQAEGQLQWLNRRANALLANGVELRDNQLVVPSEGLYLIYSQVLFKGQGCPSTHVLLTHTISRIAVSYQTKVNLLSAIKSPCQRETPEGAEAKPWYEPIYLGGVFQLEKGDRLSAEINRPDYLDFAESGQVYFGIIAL
Chain of Apo-2L (P50591 39-281 limits assumed): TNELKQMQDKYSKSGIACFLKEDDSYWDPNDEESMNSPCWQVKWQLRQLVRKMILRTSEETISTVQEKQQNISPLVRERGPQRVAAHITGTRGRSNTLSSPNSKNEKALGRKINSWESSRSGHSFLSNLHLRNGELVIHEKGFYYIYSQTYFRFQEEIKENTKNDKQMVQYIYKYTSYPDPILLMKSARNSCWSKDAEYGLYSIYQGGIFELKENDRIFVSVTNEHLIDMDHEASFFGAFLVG
Chain of Apo-2L (O14763 56-184 partner limits assumed): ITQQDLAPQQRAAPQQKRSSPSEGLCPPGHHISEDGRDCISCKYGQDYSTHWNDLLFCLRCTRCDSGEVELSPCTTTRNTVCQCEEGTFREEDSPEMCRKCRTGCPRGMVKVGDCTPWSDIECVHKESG

Molecule: COC(=O)CC[C@H](NC(=O)[C@H](CC(=O)OC)NC(=O)OCc1ccccc1)C(=O)N[C@H](C(=O)N[C@@H](CC(=O)OC)C(=O)CF)C(C)C [DEVD-fmk]
- apoptosis induction by Apo-2 [1]: blocked

Molecule: COC(=O)C[C@H](NC(=O)[C@H](C)NC(=O)[C@@H](NC(=O)OCc1ccccc1)C(C)C)C(=O)CF [z-VAD-fmk] (Cbz-Val-Ala-Asp(OMe)-CH2F)
- apoptosis induction by Apo-2 [1]: blocked

Molecule: Apo-2 ECD: soluble Apo-2 extracellular domain (amino acid residues 1-184) fused to a C-terminal Flag epitope tag
- complex formation with Apo-2L [2]: can associate with each other
- binding to Fas/Apo-1 ligand [3]: not capable of binding
- binding to TNF-alpha [4]: not capable of binding
- binding to lymphotoxin-alpha [5]: not capable of binding
- blocking of Apo-2L action (apoptosis) ([6]; Apo-2 ECD 5 μg/ml with anti-Flag antibody 1 μg/ml, pre-incubated 1 hour with Apo-2L 0.5 μ/ml, HeLa cells, FIG. 11D): capable of blocking Apo-2L action

Molecule: Apo-2L: Apo-2 ligand (also referred to as TRAIL), TNF family cytokine; soluble form as in Pitti et al.
- apoptosis in HeLa cells ([6]; soluble Apo-2L 0.5 μ/ml, 5 hour incubation, FACS, FIG. 11D): marked apoptosis
- NF-κB activation in treated HeLa cells [7]: significant NF-κB activation

Molecule: DR4: TNF receptor family member with cytoplasmic death domain, receptor for Apo-2 ligand; expressed by transfection [reference compound]
- NF-κB activation upon transfection [8]: significant NF-κB activation

Molecule: C[C@@H]1C[C@@H]([C@H](O)CC2CC(=O)NC(=O)C2)C(=O)[C@@H](C)C1 [cyclohexamide]
- level of Apo-2L-induced apoptosis ([9]; HeLa cells preincubated 1 hour with cyclohexamide 50 μg/ml): increased

Molecule: Apo-2: full-length native sequence human Apo-2, 411 amino acid type I transmembrane protein with death domain; expressed by transfection
- apoptosis of transfected 293 cells [10]: marked apoptosis
- NF-κB activation upon transfection [8]: significant NF-κB activation

Molecule: CCCC[C@@H](C=O)NC(=O)[C@H](CC(C)C)NC(=O)[C@H](CC(C)C)NC(C)=O [ALLN, N-acetyl-Leu-Leu-norleucinal] (Ac-Leu-Leu-[Nle]-aldehyde)
- level of Apo-2L-induced apoptosis ([9]; HeLa cells preincubated 1 hour with ALLN 40 μg/ml): increased

Molecule: Apo-2 ECD immunoadhesin: Apo-2 ECD (amino acids 1-184) fused to the hinge and Fc region of human immunoglobulin G1 heavy chain
- IC50 ([6]; dose-response analysis of inhibition of Apo-2L-induced apoptosis, HeLa cells, FIG. 11E, read-out: half-maximal inhibition): ~0.3 nM
